What was measured:
HCC1937 [1] = assay: drug sensitivity score (DSS), CellTiter-Glo (DSS (AUC-based score)); higher = stronger drug effect (viability inhibition or cytotoxicity); extreme values may be limits of the assay; conditions: incubation time: 72 h
Summary of the method: (§1)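 After 72 h of incubation in 384-well plates with compound at 5 concentrations (10-fold steps, 10,000-fold range set per compound), breast cancer cell lines seeded in 20 µl suspension were read first for CellTox Green fluorescence at 485/520 nm. CellTiter-Glo luminescence was measured next, after 10 min at room temperature. Normalisation on each plate used 0.1 % DMSO and a positive kill control, and the drug sensitivity score was computed from the area under the fitted dose-response curve.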

MFM-223 [2] = assay: as above; conditions: incubation time: 72 h
Summary of the method: as §1

HCC1599 [3] = assay: as above; conditions: incubation time: 72 h
Summary of the method: as §1

CAL-120 [4] = assay: normalised viability (% of control), CellTiter-Blue; higher = more viable cells (about 100 = DMSO control); conditions: 100 nM; incubation time: 72 h
Description: (§2)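 DSRT, CellTiter-Blue viability, 72 h incubation. Signal is normalised to DMSO and benzethonium chloride controls. Value is the normalised response at dose 3.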

HDQ-P1 [5] = assay: as above; conditions: 10 nM; incubation time: 72 h
Description: as §2

MDA-MB-453 = assay: as above; conditions: 10 nM; incubation time: 72 h
Description: as §2

MDA-MB-436 [6] = assay: as above; conditions: 100 nM; incubation time: 72 h
Description: as §2

CAL-85-1 = assay: as above; conditions: 10 nM; incubation time: 72 h
Description: as §2

MDA-MB-468 [7] = assay: as above; conditions: 100 nM; incubation time: 72 h
Description: as §2

HCC1937 [8] = assay: as above; conditions: 100 nM; incubation time: 72 h
Description: as §2

CAL-51 = assay: as above; conditions: 10 nM; incubation time: 72 h
Description: as §2

CAL-148 = assay: as above; conditions: 10 nM; incubation time: 72 h
Description: as §2

HCC1143 [9] = assay: as above; conditions: 100 nM; incubation time: 72 h
Description: as §2

SK-BR-3 [10] = assay: as above; conditions: 100 nM; incubation time: 72 h
Description: as §2

DU-4475 = assay: as above; conditions: 10 nM; incubation time: 72 h
Description: as §2

BT-474 [11] = assay: as above; conditions: 100 nM; incubation time: 72 h
Description: as §2

BT-549 [12] = assay: as above; conditions: 100 nM; incubation time: 72 h
Description: as §2

MFM-223 [13] = assay: as above; conditions: 100 nM; incubation time: 72 h
Description: as §2

Hs578T = assay: as above; conditions: 100 nM; incubation time: 72 h
Description: as §2

HCC1599 [14] = assay: as above; conditions: 100 nM; incubation time: 72 h
Description: as §2

MDA-MB-231 = assay: as above; conditions: 100 nM; incubation time: 72 h
Description: as §2

CAL-120 [15] = assay: normalised viability (% of control), CellTiter-Blue; higher = more viable cells (about 100 = DMSO control); conditions: incubation time: 72 h
Summary of the method: (§3)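 Seeded at 20 µl suspension per well onto compound-loaded 384-well plates, breast cancer cell lines were incubated 72 h. CellTiter-Blue fluorescence at 560/590 nm was then read, with each plate normalised to vehicle (100) and a positive kill control (0). Normalised viability is reported at a single listed concentration of the series.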

HDQ-P1 [16] = assay: as above; conditions: incubation time: 72 h
Summary of the method: as §3

MDA-MB-436 [17] = assay: as above; conditions: incubation time: 72 h
Summary of the method: as §3

MDA-MB-468 [18] = assay: as above; conditions: incubation time: 72 h
Summary of the method: as §3

HCC1143 [19] = assay: as above; conditions: incubation time: 72 h
Summary of the method: as §3

SK-BR-3 [20] = assay: as above; conditions: incubation time: 72 h
Summary of the method: as §3

BT-474 [21] = assay: as above; conditions: incubation time: 72 h
Summary of the method: as §3

BT-549 [22] = assay: as above; conditions: incubation time: 72 h
Summary of the method: as §3

CC1(C)CCC(CN2CCN(c3ccc(C(=O)NS(=O)(=O)c4ccc(NCC5CCOCC5)c([N+](=O)[O-])c4)c(Oc4cnc5[nH]ccc5c4)c3)CC2)=C(c2ccc(Cl)cc2)C1 [ABT-199]
drug sensitivity score (HCC1937 [1]): 0
drug sensitivity score (MFM-223 [2]): 0
drug sensitivity score (HCC1599 [3]): 0

Oc1ncnc2[nH]ncc12 [Allopurinol]
normalised viability (CAL-120 [4]): 107%
normalised viability (HDQ-P1 [5]): 106%
normalised viability (MDA-MB-453): 110%
normalised viability (MDA-MB-436 [6]): 108%
normalised viability (CAL-85-1): 102%
normalised viability (MDA-MB-468 [7]): 105%
normalised viability (HCC1937 [8]): 94.5%
normalised viability (CAL-51): 90%
normalised viability (CAL-148): 108%
normalised viability (HCC1143 [9]): 113%
normalised viability (SK-BR-3 [10]): 103%
normalised viability (DU-4475): 104%
normalised viability (BT-474 [11]): 106%
normalised viability (BT-549 [12]): 87.3%
normalised viability (MFM-223 [13]): 91.2%
normalised viability (Hs578T): 94%
normalised viability (HCC1599 [14]): 98.5%
normalised viability (MDA-MB-231): 109%
normalised viability (CAL-120 [15]; 10 nM): 120%
normalised viability (CAL-120 [15]; 1000 nM): 109%
normalised viability (CAL-120 [15]; 10000 nM): 108%
normalised viability (HDQ-P1 [16]; 3 nM): 95.9%
normalised viability (HDQ-P1 [16]; 30 nM): 93.1%
normalised viability (HDQ-P1 [16]; 100 nM): 91.8%
normalised viability (MDA-MB-436 [17]; 10 nM): 100%
normalised viability (MDA-MB-436 [17]; 1000 nM): 101%
normalised viability (MDA-MB-436 [17]; 10000 nM): 93.4%
normalised viability (MDA-MB-468 [18]; 10 nM): 102%
normalised viability (MDA-MB-468 [18]; 1000 nM): 99.7%
normalised viability (MDA-MB-468 [18]; 10000 nM): 103%
normalised viability (HCC1143 [19]; 10 nM): 119%
normalised viability (HCC1143 [19]; 1000 nM): 123%
normalised viability (HCC1143 [19]; 10000 nM): 108%
normalised viability (SK-BR-3 [20]; 10 nM): 100%
normalised viability (SK-BR-3 [20]; 1000 nM): 103%
normalised viability (SK-BR-3 [20]; 10000 nM): 105%
normalised viability (BT-474 [21]; 10 nM): 114%
normalised viability (BT-474 [21]; 1000 nM): 116%
normalised viability (BT-474 [21]; 10000 nM): 102%
normalised viability (BT-549 [22]; 10 nM): 105%
normalised viability (BT-549 [22]; 1000 nM): 86.6%
normalised viability (BT-549 [22]; 10000 nM): 99.1%
drug sensitivity score (HCC1937 [1]): 0
drug sensitivity score (MFM-223 [2]): 0
drug sensitivity score (HCC1599 [3]): 0

CC(=O)N(O)CCCCCNC(=O)CCC(=O)N(O)CCCCCNC(=O)CCC(=O)N(O)CCCCCN [Deferoxamine]
drug sensitivity score (HCC1937 [1]): 3.29
drug sensitivity score (MFM-223 [2]): 0
drug sensitivity score (HCC1599 [3]): 1.95

C[C@]1(O)C[C@@H](c2nc(-c3ccc4ccc(-c5ccccc5)nc4c3)c3c(N)nccn32)C1 [Linsitinib]
drug sensitivity score (HCC1937 [1]): 0
drug sensitivity score (MFM-223 [2]): 0
drug sensitivity score (HCC1599 [3]): 2.37

C[C@]1(O)C[C@@H](c2nc(-c3ccc4ccc(-c5ccccc5)nc4c3)c3c(N)nccn32)C1 [OSI-906]
normalised viability (CAL-120 [4]): 90%
normalised viability (HDQ-P1 [5]): 76%
normalised viability (MDA-MB-453): 86.6%
normalised viability (MDA-MB-436 [6]): 94.5%
normalised viability (CAL-85-1): 104%
normalised viability (MDA-MB-468 [7]): 98.6%
normalised viability (HCC1937 [8]): 92.5%
normalised viability (CAL-51): 97.4%
normalised viability (CAL-148): 101%
normalised viability (HCC1143 [9]): 105%
normalised viability (SK-BR-3 [10]): 78.3%
normalised viability (DU-4475): 94.1%
normalised viability (BT-474 [11]): 110%
normalised viability (BT-549 [12]): 84.4%
normalised viability (MFM-223 [13]): 95.5%
normalised viability (Hs578T): 74.8%
normalised viability (HCC1599 [14]): 94.9%
normalised viability (MDA-MB-231): 83.8%
normalised viability (CAL-120 [15]; 10 nM): 96.6%
normalised viability (CAL-120 [15]; 1000 nM): 84.2%
normalised viability (CAL-120 [15]; 10000 nM): 56.2%
normalised viability (HDQ-P1 [16]; 3 nM): 79.4%
normalised viability (HDQ-P1 [16]; 30 nM): 83.9%
normalised viability (HDQ-P1 [16]; 100 nM): 85.4%
normalised viability (MDA-MB-436 [17]; 10 nM): 85.2%
normalised viability (MDA-MB-436 [17]; 1000 nM): 96%
normalised viability (MDA-MB-436 [17]; 10000 nM): 71.7%
normalised viability (MDA-MB-468 [18]; 10 nM): 104%
normalised viability (MDA-MB-468 [18]; 1000 nM): 86.5%
normalised viability (MDA-MB-468 [18]; 10000 nM): 84.6%
normalised viability (HCC1143 [19]; 10 nM): 99.9%
normalised viability (HCC1143 [19]; 1000 nM): 85.5%
normalised viability (HCC1143 [19]; 10000 nM): 75.2%
normalised viability (SK-BR-3 [20]; 10 nM): 88.7%
normalised viability (SK-BR-3 [20]; 1000 nM): 79.7%
normalised viability (SK-BR-3 [20]; 10000 nM): 54.3%
normalised viability (BT-474 [21]; 10 nM): 102%
normalised viability (BT-474 [21]; 1000 nM): 91.5%
normalised viability (BT-474 [21]; 10000 nM): 78.4%
normalised viability (BT-549 [22]; 10 nM): 95.4%
normalised viability (BT-549 [22]; 1000 nM): 89.1%
normalised viability (BT-549 [22]; 10000 nM): 41.3%

Cc1ccc([N+](=O)[O-])cc1S(=O)(=O)N(C)/N=C/c1cnc2ccc(Br)cn12 [PIK-75]
drug sensitivity score (HCC1937 [1]): 24
drug sensitivity score (MFM-223 [2]): 26
drug sensitivity score (HCC1599 [3]): 23.1

CC(=O)c1c(C)c2cnc(Nc3ccc(N4CCNCC4)cn3)nc2n(C2CCCC2)c1=O [Palbociclib]
drug sensitivity score (HCC1937 [1]): 0
drug sensitivity score (MFM-223 [2]): 5.89
drug sensitivity score (HCC1599 [3]): 0

COc1cc(F)c(F)c(Nc2ccc(I)cc2F)c1NS(=O)(=O)C1(C[C@H](O)CO)CC1 [RDEA119]
normalised viability (CAL-120 [4]): 93.7%
normalised viability (HDQ-P1 [5]): 74.8%
normalised viability (MDA-MB-453): 78.3%
normalised viability (MDA-MB-436 [6]): 90.4%
normalised viability (CAL-85-1): 97.3%
normalised viability (MDA-MB-468 [7]): 86.1%
normalised viability (HCC1937 [8]): 87.7%
normalised viability (CAL-51): 91.2%
normalised viability (CAL-148): 93.6%
normalised viability (HCC1143 [9]): 90.8%
normalised viability (SK-BR-3 [10]): 90.7%
normalised viability (DU-4475): 86%
normalised viability (BT-474 [11]): 98.7%
normalised viability (BT-549 [12]): 77.4%
normalised viability (MFM-223 [13]): 85%
normalised viability (Hs578T): 76%
normalised viability (HCC1599 [14]): 87.4%
normalised viability (MDA-MB-231): 45%
normalised viability (CAL-120 [15]; 10 nM): 103%
normalised viability (CAL-120 [15]; 1000 nM): 64.5%
normalised viability (CAL-120 [15]; 10000 nM): 47.3%
normalised viability (HDQ-P1 [16]; 3 nM): 81.5%
normalised viability (HDQ-P1 [16]; 30 nM): 88%
normalised viability (HDQ-P1 [16]; 100 nM): 110%
normalised viability (MDA-MB-436 [17]; 10 nM): 93.3%
normalised viability (MDA-MB-436 [17]; 1000 nM): 103%
normalised viability (MDA-MB-436 [17]; 10000 nM): 84.6%
normalised viability (MDA-MB-468 [18]; 10 nM): 94.2%
normalised viability (MDA-MB-468 [18]; 1000 nM): 78.3%
normalised viability (MDA-MB-468 [18]; 10000 nM): 51%
normalised viability (HCC1143 [19]; 10 nM): 117%
normalised viability (HCC1143 [19]; 1000 nM): 62.8%
normalised viability (HCC1143 [19]; 10000 nM): 61.7%
normalised viability (SK-BR-3 [20]; 10 nM): 110%
normalised viability (SK-BR-3 [20]; 1000 nM): 81.8%
normalised viability (SK-BR-3 [20]; 10000 nM): 100%
normalised viability (BT-474 [21]; 10 nM): 108%
normalised viability (BT-474 [21]; 1000 nM): 103%
normalised viability (BT-474 [21]; 10000 nM): 110%
normalised viability (BT-549 [22]; 10 nM): 98.7%
normalised viability (BT-549 [22]; 1000 nM): 87.5%
normalised viability (BT-549 [22]; 10000 nM): 66.4%

COc1cc(F)c(F)c(Nc2ccc(I)cc2F)c1NS(=O)(=O)C1(C[C@H](O)CO)CC1 [Refametinib]
drug sensitivity score (HCC1937 [1]): 4.08
drug sensitivity score (MFM-223 [2]): 5.74
drug sensitivity score (HCC1599 [3]): 0

Source: the supplement of paper PMC4862054
